# Reference: patent US8748376B2, “Stable formulations of peptides” (Novo Nordisk A/S, priority 2004, dated 2014)
# Assay: Thioflavine T stress test of heat treated liraglutide preparations
# Format: physicochemical
# Description: The physical stability of the liraglutide preparations was evaluated by the use of a florescence method; the Thioflavine T-test where the histological thiazole dye Thioflavine T (ThT) was used as an indicator of fibril formation. By the use of Thioflavine T-test it was possible to determine the presence of fibrils in the different formulations. The method was based on the fluorescent characteristics of ThT.
# ThT was used in a stress test applying the different formulations in microtiter plates with ThT at 35° C. and shaken with 350 rpm until the formulations were fibrillated. Graphs of the fluorescence intensity (FI) as a function of time (sec) were obtained.
compound,measurement,setting,value
"CCCCCCCCCCCCCCCC(=O)N[C@@H](CCC(=O)NCCCC[C@H](NC(=O)[C@H](C)NC(=O)[C@H](C)NC(=O)[C@H](CCC(N)=O)NC(=O)CNC(=O)[C@H](CCC(=O)O)NC(=O)[C@H](CC(C)C)NC(=O)[C@H](Cc1ccc(O)cc1)NC(=O)[C@H](CO)NC(=O)[C@H](CO)NC(=O)[C@@H](NC(=O)[C@H](CC(=O)O)NC(=O)[C@H](CO)NC(=O)[C@@H](NC(=O)[C@H](Cc1ccccc1)NC(=O)[C@@H](NC(=O)CNC(=O)[C@H](CCC(=O)O)NC(=O)[C@H](C)NC(=O)[C@@H](N)Cc1cnc[nH]1)[C@@H](C)O)[C@@H](C)O)C(C)C)C(=O)N[C@@H](CCC(=O)O)C(=O)N[C@@H](Cc1ccccc1)C(=O)N[C@H](C(=O)N[C@@H](C)C(=O)N[C@@H](Cc1c[nH]c2ccccc12)C(=O)N[C@@H](CC(C)C)C(=O)N[C@H](C(=O)N[C@@H](CCCNC(=N)N)C(=O)NCC(=O)N[C@@H](CCCNC(=N)N)C(=O)NCC(=O)O)C(C)C)[C@@H](C)CC)C(=O)O [liraglutide, Arg^34, Lys^26(N^ε-(γ-Glu(N^α-hexadecanoyl)))-GLP-1(7-37)]","physical stability, time of heat treatment","60 and 80° C., 120 minutes in comparison to 1 minute of heat treatment",improve the physical stability significantly
same,physical stability by increasing the temperature of heat treatment,from 22 to 50-80° C. at pH 9-10,significantly improved
same,physical stability as temperature of heat treatment was increased,heat treatment 22 to 80° C.,significantly improved
same,"physical stability, time of heat treatment","pH 9-10, all temperatures, 15 to 20 minutes compared to 1 minute of heat treatment",improve the physical stability significantly
